# BindingDB's records for doi:10.1021/jm00367a006 (1984)
# pEC50: −log10 of the molar value.
# Biological target: dopamine D1 receptor (Rattus norvegicus)
# Assay: Effective concentration that gives maximal stimulation of cyclic AMP production over the concentration range tested.
row,SMILES,pEC50
1,CN1Cc2c(N)cccc2[C@H](c2ccc(O)c(O)c2)C1,5.73
2,"CN1Cc2c(N)cccc2C(c2ccc(O)c(O)c2)C1 (configuration not stated) [4-(8-Amino-2-methyl-1,2,3,4-tetrahydro-isoquinolin-4-yl)-benzene-1,2-diol]",5.54
